In patent US7776794B2, “Biosensor using living cells on silicon-based microarrays” (The Research Foundation of State University of New York, priority 2003, dated 2010):

System: FT cells
Test: Amperometric recording of norepinephrine release from pre-loaded FT cells on the microarray upon ATP stimulation
Format: cell-based, Rana catesbeiana
Settings: ATP final concentration 300 μM in FT medium; FT cells preloaded in 4 mM NE for 15 min; single electrode held at 700 mV (FIG. 9, trace 1)
Procedure: The cells, which have grown to become a confluent monolayer on the surface of the microarray, are “pre-loaded” with medium containing the appropriate amount of an oxidizable molecule, for example, 0.5-10 mM of a catecholamine such as norepinephrine (NE), for a time sufficient for the cells to endocytose the catecholamine, about 1-30 minutes. The pre-loading medium is then replaced with fresh medium, and the solution is grounded with a Ag/AgCl wire.
Within minutes of pre-loading, the cells are then exposed to a biological sample containing an analyte, the detection of which is desired. Binding of analyte to a receptor on the cells' surface increases intracellular calcium, thereby stimulating release of the pre-loaded NE. This secretion event is detected with millisecond temporal resolution via electrochemical oxidation of the secreted compound on an electrode that is voltage-clamped slightly above its redox potential. Increases in current due to oxidation of NE on the Cr/Au electrode is recorded. This is represented schematically in FIG. 4.
A microarray containing a confluent growth of FT cells was subsequently tested. To test the response properties of the cells to ATP (0.3 mM), microarrays with confluent cultures of cells were measured prior to preloading with NE. Then, cells were pre-loaded with varying concentrations of NE and ATP was reapplied. […]

Nc1ncnc2c1ncn2[C@@H]1O[C@H](COP(=O)(O)OP(=O)(O)OP(=O)(O)O)[C@@H](O)[C@H]1O [ATP]
duration of current response: 9 to 10 min | peak current above baseline: approximately 800 pA
